Assay results taken from patent publication US8734837B2, “Enhancement of development of oviparous species by in ovo feeding of enteric modulators” (North Carolina State University, priority 2000, dated 2014).

How the values were obtained:
Format in all cases: in vivo
[1] = Plasma glucose of turkey poults by HMB dosage injected in ovo (Example 10, FIG. 8); details: turkey poults at hatch
Procedure: (§1) Three hundred commercial turkey eggs were stored for three weeks in a cooler at 55° F. and then placed in an egg incubator. After 24 days of incubation, eggs identified as fertile by candling the eggs were randomly assigned to 5 groups of 50 eggs. Each group of 50 eggs was then injected into the air cell at a depth of 0.25 inches with a 0.10 ml saline (0.89% NaCl) solution containing 0, 0.1, 1.0, 10.0, and 100.0 milligrams of Ca-HMB.
(§2) After injection, the eggs were placed in hatching baskets such that each treatment was equally represented in each location of the incubator. Hatched poults were recovered from the incubator at 28 days of incubation and the number of hatched poults per treatment group recorded. The hatched poults were then sacrificed and blood glucose was determined in accordance with known techniques (see Donaldson and Christensen, Comp. Biochem. Physiol. 98A, 347-350 (1991)). Livers were removed and glycogen content of each liver was determined by known techniques (see Dreiling et al., Meat Sci. 20, 167-177 (1987)).

[2] = Hatchability rate of turkey poults by HMB dosage injected in ovo (Example 10, FIG. 6)
Procedure: as §1, §2

[3] = Liver glycogen of turkey poults by HMB dosage injected in ovo (Example 10, FIG. 7); details: turkey poults at hatch; all HMB dosage levels (0.1-100.0 milligrams)
Procedure: as §1, §2

CC(C)(O)CC(=O)O [HMB, beta-hydroxy-beta-methylbutyrate]
Plasma glucose concentration (in words) ([1]; 0.1 milligram HMB dosage): significantly increased plasma glucose concentration
Plasma glucose concentration (in words) ([1]; other HMB dosage levels (1.0, 10.0, 100.0 milligrams)): no significant effect on plasma glucose
Hatchability rate ([2]; turkey eggs stored 3 weeks, 0.1 and 1.0 milligrams HMB in 0.1 ml saline into air cell at 24 days of incubation, control 72.3%): 81.6%
Hatchability rate (in words) ([2]; turkey eggs, HMB injected above 1.0 milligrams): hatchability rate decreased
Liver glycogen content, increase compared with the control treatment [3]: about 40%
